Consider 4 compounds from US10323004B2, “Inhibitors of indoleamine 2,3-dioxygenase and methods of their use” (BRISTOL-MYERS SQUIBB COMPANY, priority 2016, dated 2019).

Each structure is given as a SMILES string.

T1 sequence (P14902 whole entry): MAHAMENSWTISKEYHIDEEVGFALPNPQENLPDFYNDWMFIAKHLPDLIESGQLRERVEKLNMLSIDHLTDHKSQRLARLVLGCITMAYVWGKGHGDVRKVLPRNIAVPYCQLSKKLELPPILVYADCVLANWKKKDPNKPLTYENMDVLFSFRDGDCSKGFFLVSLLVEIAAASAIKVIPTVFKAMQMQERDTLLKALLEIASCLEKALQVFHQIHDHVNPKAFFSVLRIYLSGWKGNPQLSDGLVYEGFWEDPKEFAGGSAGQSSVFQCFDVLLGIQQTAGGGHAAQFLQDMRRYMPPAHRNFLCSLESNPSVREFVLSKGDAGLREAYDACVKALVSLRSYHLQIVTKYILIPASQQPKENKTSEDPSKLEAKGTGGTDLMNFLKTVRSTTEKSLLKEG

This experiment addresses T1, human IDO1 (Homo sapiens, UniProt P14902).
T1 construct: expressed in transfected cells
Put plainly: human IDO1/HEK293 cell IDO inhibition assay (kynurenine production). It counts as cell-based. As to conditions: HEK293 cells stably expressing human IDO1; 20 hours incubation; absorbance at 490 nm; read-out: Biol. Activity (HEK μM) IDO IC50. The protocol: HEK293 cells were transfected with a pCDNA-based mammalian expression vector harboring human IDO1 cDNA (NM 002164.2) by electroporation. They were cultured in medium (DMEM with 10% FBS) containing 1 mg/ml G418 for two weeks. Clones of HEK293 cells that stably expressed human IDO1 protein were selected and expanded for IDO inhibition assay.
The human IDO1/HEK293 cells were seeded at 10,000 cells per 50 μL per well with RPMI/phenol red free media contains 10% FBS in a 384-well black wall clear bottom tissue culture plate (Matrix Technologies LLC) 100 nL of certain concentration of compound was then added to each well using ECHO liquid handling systems. The cells were incubated for 20 hours in 37° C. incubator with 5% CO2.
The compound treatments were stopped by adding trichloroacetic acid (Sigma-Aldrich) to a final concentration at 0.2%. The cell plate was further incubated at 50° C. for 30 minute. The equal volume supernatant (20 μL) and 0.2% (w/v) Ehrlich reagent (4-dimethylaminobenzaldehyde, Sigma-Aldrich) in glacial acetic acid were mixed in a new clear bottom 384-well plate. This plate was then incubated at room temperature for 30 minute. The absorbance at 490 nm was measured on Envision plate reader.
Compound IC50 values were calculated using the counts of 500 nM of a reference standard treatment as one hundred percent inhibition, and counts of no compound but DMSO treatment as zero percent inhibition.
The term IC50 denotes the concentration needed to halve the response being measured. Take `O=C(Cc1ccc(Cl)cc1)N(Cc1ccccc1)[C@H]1CC[C@H](c2ccnc3ccc(F)cc32)CC1` [Example 1, N-benzyl-2-(4-chlorophenyl)-N-(trans-4-(6-fluoroquinolin-4-yl)cyclohexyl)acetamide]: the IC50 was under 10 µM.

Regarding `O=C(c1ccc(Cl)cc1)N(Cc1ccccc1)[C@H]1CC[C@H](c2ccnc3ccc(F)cc32)CC1` [Example 2, N-benzyl-4-chloro-N-(trans-4-(6-fluoroquinolin-4-yl)cyclohexyl)benzamide], the IC50 was under 1 µM.

As to `N#Cc1ccc(C(=O)N(Cc2ccccc2)[C@H]2CC[C@H](c3ccnc4ccc(F)cc43)CC2)cc1` [Example 3, N-benzyl-4-cyano-N-(trans-4-(6-fluoroquinolin-4-yl)cyclohexyl)benzamide], the IC50 was under 10 µM.

`O=C(Cc1ccc(Cl)cc1)N(Cc1ccccc1)[C@H]1CC[C@@H](c2ccnc3ccc(F)cc32)CC1` [Example 4, N-benzyl-2-(4-chlorophenyl)-N-(cis-4-(6-fluoroquinolin-4-yl)cyclohexyl)acetamide]: the half-maximal inhibitory concentration (IC50) is under 10 µM.
